The text below walks through data of patent US20050009840A1 (SUGEN, INC., priority 2003, published 2005).

T1 sequence (P08581 1078-1345 limits assumed): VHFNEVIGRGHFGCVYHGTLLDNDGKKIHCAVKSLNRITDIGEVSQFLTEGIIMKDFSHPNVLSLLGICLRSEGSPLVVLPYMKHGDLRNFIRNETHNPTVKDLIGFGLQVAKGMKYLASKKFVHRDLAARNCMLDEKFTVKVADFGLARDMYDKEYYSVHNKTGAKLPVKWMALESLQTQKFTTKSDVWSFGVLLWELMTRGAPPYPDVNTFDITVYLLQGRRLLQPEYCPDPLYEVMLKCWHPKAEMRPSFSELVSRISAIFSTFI

The assay concerns the target T1, Met kinase domain (GST fusion protein) (Homo sapiens, UniProt P08581).
T1 construct: Purified GST fusion protein containing the Met kinase domain
Description: Met transphosphorylation assay (ELISA, poly(glu-tyr) substrate).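 Also: Cell-free ELISA with plate-bound poly(Glu:Tyr 4:1) phosphorylated by GST-fused Met kinase domain plus ATP and Mn2+, phosphotyrosine detected by anti-phosphotyrosine antibody with HRP and ABTS read-out.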 Type of assay: biochemical. The following applies: read-out: Met IC50. On the technique in general: In an ELISA, binding on a coated surface is turned into a signal by an enzyme label.
In the case of `Nc1ncc(-c2ccc(C(=O)O)cc2)cc1OCc1c(Cl)cccc1Cl` [Example I-35, 4-[6-Amino-5-(2,6-dichloro-benzyloxy)-pyridin-3-yl]-benzoic acid], the 50% inhibitory concentration (IC50) (usually the concentration needed to halve the response being measured) was determined as 12800 nM.

In the case of `CCN(CC)CCNC(=O)c1ccc(-c2cnc(N)c(OCc3c(Cl)cccc3Cl)c2)cc1` [Example I-36, 4-[6-Amino-5-(2,6-dichloro-benzyloxy)-pyridin-3-yl]-N-(2-diethylamino-ethyl)-benzamide], the 50% inhibitory concentration (IC50) amounted to 990 nM.

As to `CCN(CC)CCCNC(=O)c1ccc(-c2cnc(N)c(OCc3c(Cl)cccc3Cl)c2)cc1` [Example I-37, 4-[6-Amino-5-(2,6-dichloro-benzyloxy)-pyridin-3-yl]-N-(3-diethylamino-propyl)-benzamide], the half-maximal inhibitory concentration (IC50) stood at 820 nM. For `CN1CCN(C(=O)c2ccc(-c3cnc(N)c(OCc4c(Cl)cccc4Cl)c3)cc2)CC1` [Example I-38, {4-[6-Amino-5-(2,6-dichloro-benzyloxy)-pyridin-3-yl]-phenyl}-(4-methyl-piperazin-1-yl)-methanone] the value was 1020 nM; for `Nc1ncc(-c2ccc(C(=O)N3CCC(CCO)CC3)cc2)cc1OCc1c(Cl)cccc1Cl` [Example I-42, {4-(6-Amino-5-(2,6-dichloro-benzyloxy)-pyridin-3-yl]-phenyl}-[4-(2-hydroxy-ethyl)-piperidin-1-yl]-methanone], 560 nM. For the molecule `CN(C)[C@H]1CCN(C(=O)c2ccc(-c3cnc(N)c(OCc4c(Cl)cccc4Cl)c3)cc2)C1` [Example I-43, {4-[6-Amino-5-(2,6-dichloro-benzyloxy)-pyridin-3-yl]-phenyl}-[(3S)-3-dimethylamino-pyrrolidin-1-yl]-methanone], the half-inhibitory concentration (IC50) came to 470 nM. For `CN(C)[C@@H]1CCN(C(=O)c2ccc(-c3cnc(N)c(OCc4c(Cl)cccc4Cl)c3)cc2)C1` [Example I-44, {4-[6-Amino-5-(2,6-dichloro-benzyloxy)-pyridin-3-yl]-phenyl}-[(3R)-3-dimethylamino-pyrrolidin-1-yl]-methanone] the value was 650 nM; for `Nc1ncc(-c2ccc(C(=O)NCC(O)CN3CCCC3)cc2)cc1OCc1c(Cl)cccc1Cl` (stereo not shown) [Example I-46, 4-[6-Amino-5-(2,6-dichloro-benzyloxy)-pyridin-3-yl]-N-(2-hydroxy-3-pyrrolidin-1-yl-propyl)-benzamide], 200 nM; for `Nc1ncc(-c2ccc(C(=O)N3CCC[C@H]3CN3CCCC(F)C3)cc2)cc1OCc1c(Cl)cccc1Cl` (stereo partly drawn) [Example I-47, {4-[6-Amino-5-(2,6-dichloro-benzyloxy)-pyridin-3-yl]-phenyl}-[(2S)-2-(3-fluoro-piperidin-1-ylmethyl)-pyrrolidin-1-yl]-methanone], 420 nM. The figure for `Nc1ncc(-c2ccc(C(=O)N3CCN(C4CC4)CC3)cc2)cc1OCc1c(Cl)cccc1Cl` [Example I-48, {4-[6-Amino-5-(2,6-dichloro-benzyloxy)-pyridin-3-yl]-phenyl}-(4-cyclopropyl-piperazin-1-yl)-methanone] is 1670 nM. Consider `Nc1ncc(-c2ccc(C(=O)N3CCC[C@@H]3CNCC3CC3)cc2)cc1OCc1c(Cl)cccc1Cl` [Example I-49, {4-[6-Amino-5-(2,6-dichloro-benzyloxy)-pyridin-3-yl]-phenyl}-{(2R)-2-[(cyclopropylmethyl-amino)-methyl]-pyrrolidin-1-yl}-methanone], for which the IC50 came out at 370 nM. The figure for `Nc1ncc(-c2ccc(C(=O)N(CC3CC3)C[C@H]3CCCN3)cc2)cc1OCc1c(Cl)cccc1Cl` [Example I-50, 4-[6-Amino-5-(2,6-dichloro-benzyloxy)-pyridin-3-yl]-N-cyclopropylmethyl-N-(2R)-pyrrolidin-2-ylmethyl-benzamide] is 290 nM. For `CN(CC(O)CN1CCCC1)C(=O)c1ccc(-c2cnc(N)c(OCc3c(Cl)cccc3Cl)c2)cc1` (stereo not shown) [Example I-51, 4-[6-Amino-5-(2,6-dichloro-benzyloxy)-pyridin-3-yl]-N-(2-hydroxy-3-pyrrolidin-1-yl-propyl)-N-methyl-benzamide] the value was 710 nM; for `Nc1ncc(-c2ccc(C(=O)N3CCC[C@H]3CN3CC[C@@H](O)C3)cc2)cc1OCc1c(Cl)cccc1Cl` [Example I-52, {4-[6-Amino-5-(2,6-dichloro-benzyloxy)-pyridin-3-yl]-phenyl}-{(2S)-2-[(3R)-3-hydroxy-pyrrolidin-1-ylmethyl]-pyrrolidin-1-yl}-methanone], 530 nM. The figure for `Nc1ncc(-c2cccc(C(=O)O)c2)cc1OCc1c(Cl)cccc1Cl` [Example I-53, 3-[6-Amino-5-(2,6-dichloro-benzyloxy)-pyridin-3-yl]-benzoic acid] is 16000 nM. For `Nc1ncc(-c2cccc(C(=O)N3CCC[C@@H]3CN3CCCC3)c2)cc1OCc1c(Cl)cccc1Cl` [Example I-54, {3-(6-Amino-5-(2,6-dichloro-benzyloxy)-pyridin-3-yl]-phenyl}-[(2R)-2-pyrrolidin-1-ylmethyl-pyrrolidin-1-yl]-methanone], the IC50 amounted to 2500 nM. For `Nc1ncc(-c2ccc(OCC(=O)O)cc2)cc1OCc1c(Cl)cccc1Cl` [Example I-55, {4-[6-Amino-5-(2,6-dichloro-benzyloxy)-pyridin-3-yl]-phenoxy}-acetic acid] the value was 2410 nM; for `Nc1ncc(-c2ccc(OCC(=O)N3CCC[C@@H]3CN3CCCC3)cc2)cc1OCc1c(Cl)cccc1Cl` [Example I-56, 2-{4-[6-Amino-5-(2,6-dichloro-benzyloxy)-pyridin-3-yl]-phenoxy}-1-[(2R)-2-pyrrolidin-1-ylmethyl-pyrrolidin-1-yl]-ethanone], 530 nM; for `Nc1ncc(-c2ccc(OCC(=O)N3CCC[C@H]3CN3CCCC3)cc2)cc1OCc1c(Cl)cccc1Cl` [Example I-57, 2-{4-[6-Amino-5-(2,6-dichloro-benzyloxy)-pyridin-3-yl]-phenoxy}-1-[(2S)-2-pyrrolidin-1-ylmethyl-pyrrolidin-1-yl]-ethanone], 500 nM. Take `Nc1ncc(-c2ccc3[nH]ccc3c2)cc1OCc1c(Cl)cccc1Cl` [Example I-58, 3-(2,6-Dichloro-benzyloxy)-5-(1H-indol-5-yl)-pyridin-2-ylamine]: the IC50 came to 4300 nM. For `CN1CC=C(c2c[nH]c3ccc(-c4cnc(N)c(OCc5c(Cl)cccc5Cl)c4)cc23)CC1` [Example I-59, 3-(2,6-Dichloro-benzyloxy)-5-[3-(1-methyl-1,2,3,6-tetrahydro-pyridin-4-yl)-1H-indol-5-yl]-pyridin-2-ylamine] the value was 1570 nM; for `CN1CCC(c2c[nH]c3ccc(-c4cnc(N)c(OCc5c(Cl)cccc5Cl)c4)cc23)CC1` [Example I-60, 3-(2,6-Dichloro-benzyloxy)-5-[3-(1-methyl-piperidin-4-yl)-1H-indol-5-yl]-pyridin-2-ylamine], 3040 nM; for `Nc1ncc(-c2ccc3[nH]cc(CN4CCOCC4)c3c2)cc1OCc1c(Cl)cccc1Cl` [Example I-61, 3-(2,6-Dichloro-benzyloxy)-5-(3-morpholin-4-ylmethyl-1H-indol-5-yl)-pyridin-2-ylamine], 1190 nM. For `Nc1ncc(-c2ccc3[nH]cc(CN4CCCCC4)c3c2)cc1OCc1c(Cl)cccc1Cl` [Example I-62, 3-(2,6-Dichloro-benzyloxy)-5-(3-piperidin-1-ylmethyl-1H-indol-5-yl)-pyridin-2-ylamine] the value was 1410 nM; for `Nc1ncc(-c2ccc3[nH]cc(CN4CCCC4)c3c2)cc1OCc1c(Cl)cccc1Cl` [Example I-63, 3-(2,6-Dichloro-benzyloxy)-5-(3-pyrrolidin-1-ylmethyl-1H-indol-5-yl)-pyridin-2-ylamine], 1340 nM.

`CCN(CC)Cc1c[nH]c2ccc(-c3cnc(N)c(OCc4c(Cl)cccc4Cl)c3)cc12` [Example I-64, 3-(2,6-Dichloro-benzyloxy)-5-(3-diethylaminomethyl-1H-indol-5-yl)-pyridin-2-ylamine]: the IC50 came out at 3230 nM. The figure for `CC(C)(C)OC(=O)N[C@@H]1CCN(Cc2c[nH]c3ccc(-c4cnc(N)c(OCc5c(Cl)cccc5Cl)c4)cc23)C1` [Example I-65] is 6300 nM; for `C[C@@H]1CN(Cc2c[nH]c3ccc(-c4cnc(N)c(OCc5c(Cl)cccc5Cl)c4)cc23)C[C@H](C)O1` [Example I-66, 3-(2,6-Dichloro-benzyloxy)-5-[3-(2,6-dimethyl-morpholin-4-ylmethyl)-1H-indol-5-yl]-pyridin-2-ylamine] it is above 20000 nM. The figure for `CC(=O)N[C@@H]1CCN(Cc2c[nH]c3ccc(-c4cnc(N)c(OCc5c(Cl)cccc5Cl)c4)cc23)C1` [Example I-67, N-(1-{5-[6-Amino-5-(2,6-dichloro-benzyloxy)-pyridin-3-yl]-1H-indol-3-ylmethyl}-(3R)-pyrrolidin-3-yl)-acetamide] is 1790 nM. Take `CC(=O)N1CCN(Cc2c[nH]c3ccc(-c4cnc(N)c(OCc5c(Cl)cccc5Cl)c4)cc23)CC1` [Example I-68, 1-(4-{5-[6-Amino-5-(2,6-dichloro-benzyloxy)-pyridin-3-yl]-1H-indol-3-ylmethyl}-piperazin-1-yl)-ethanone]: the IC50 was found to be 2180 nM.

For `CC(=O)N1CCN(Cc2c[nH]c3ccc(-c4cnc(N)c(OCc5c(F)ccc(F)c5Cl)c4)cc23)CC1` [Example I-70, 1-(4-{5-[6-Amino-5-(2-chloro-3,6-difluoro-benzyloxy)-pyridin-3-yl]-1H-indol-3-ylmethyl}-piperazin-1-yl)-ethanone], the IC50 came out at 800 nM. For `C[C@@H]1CN(Cc2c[nH]c3ccc(-c4cnc(N)c(OCc5c(F)ccc(F)c5Cl)c4)cc23)C[C@H](C)O1` [Example I-71, 3-(2-Chloro-3,6-difluoro-benzyloxy)-5-[3-(2,6-dimethyl-morpholin-4-ylmethyl)-1H-indol-5-yl]-pyridin-2-ylamine] the value was 2710 nM; for `CC(=O)N[C@H]1CCN(Cc2c[nH]c3ccc(-c4cnc(N)c(OCc5c(F)ccc(F)c5Cl)c4)cc23)C1` [Example I-72, N-(1-{5-[6-Amino-5-(2-chloro-3,6-difluoro-benzyloxy)-pyridin-3-yl]-1H-indol-3-ylmethyl}-(3S)-pyrrolidin-3-yl)-acetamide], 950 nM. For `Nc1ncc(-c2ccc3[nH]cc(CN4CCCCC4)c3c2)cc1OCc1c(F)ccc(F)c1Cl` [Example I-73, 3-(2-Chloro-3,6-difluoro-benzyloxy)-5-(3-piperidin-1-ylmethyl-1H-indol-5-yl)-pyridin-2-ylamine] the value was 740 nM.
